The record followed here is ChEMBL document CHEMBL6103564, “Selective Degradation of TEADs by a PROTAC Molecule Exhibited Robust Anticancer Efficacy In Vitro and In Vivo” (J Med Chem, 2025).

The AUC(0-inf) is total exposure, with the tail of the curve extrapolated. Low values mean less exposure, high ones more exposure. The term half-life denotes how long it takes for the measured level to halve. Usually AUC(0-t) stands for the area under the concentration-time curve up to a stated or last time point. A low value points to less exposure. Usually MRT stands for a mean duration of stay, worked out from the concentration-time curve. One may read the clearance as a measure of how efficiently the substance is removed, as volume per time. A higher clearance goes with efficient removal. The Cmax is the peak of the concentration-time curve. As a reminder, the Vd is the apparent volume that relates the amount in the body to the concentration in plasma or blood.

A short description of series [1]: in vivo. The settings on record: ICR, mouse, ip, 10 mg/kg.
The nature of series [2]: in vivo. The settings on record: ICR, mouse, iv, 5 mg/kg.
The nature of series [3]: in vivo. The conditions noted are these: ICR, mouse, ip, 10 mg/kg. The source holds these as a separate data set.
The nature of series [4]: in vivo. The conditions noted are these: ICR, mouse, iv, 5 mg/kg. This is another data set of the same source.
Series [5] is described as follows: in vivo. The settings on record: ICR, mouse, ip, 10 mg/kg. The source holds these as a separate data set.
Series [6] can be described thus: in vivo. The settings on record: ICR, mouse, ip, 10 mg/kg. The source holds these as a separate data set.
Series [7] is described as follows: in vivo. The conditions noted are these: ICR, mouse, iv, 5 mg/kg. The source holds these as a separate data set.
Series [8] can be described thus: in vivo. The conditions noted are these: ICR, mouse, po, 5 mg/kg.
Series [9] is described as follows: in vivo. The settings on record: ICR, mouse, po, 5 mg/kg. This is another data set of the same source.
The nature of series [10]: in vivo. The conditions noted are these: ICR, mouse, ip, 10 mg/kg. This is another data set of the same source.
A short description of series [11]: in vivo. The settings on record: ICR, mouse, iv, 5 mg/kg. The source holds these as a separate data set.
Series [12] can be described thus: in vivo. The conditions noted are these: ICR, mouse, iv, 5 mg/kg. This is another data set of the same source.
Series [13] is described as follows: in vivo. The conditions noted are these: ICR, mouse, po, 5 mg/kg. This is another data set of the same source.
Series [14] in a line: in vivo. The settings on record: ICR, mouse, iv, 5 mg/kg. The source holds these as a separate data set.
Series [15] in a line: in vivo. The conditions noted are these: ICR, mouse, po, 10 mg/kg.
A short description of series [16]: in vivo. The conditions noted are these: ICR, mouse, iv, 5 mg/kg. This is another data set of the same source.
Series [17] can be described thus: in vivo. The settings on record: ICR, mouse, po, 5 mg/kg. This is another data set of the same source.

As for `COCCOc1ccc(C(N)=O)c(-c2c(Cl)ccc3c2C[C@@](CNCCC2CCN(c4ccc5c(c4)C(=O)N(C4CCC(=O)NC4=O)C5=O)CC2)(c2ccccc2)O3)c1F` (some centres not stated), the AUC(0-inf) is 3000 ng·h/mL in [1] and 1240 ng·h/mL in series [12]. For the same compound, the half-life in series [2] is 1.94 h; in [3], 2.68 h. For the same compound, the AUC(0-t) in series [4] is 1220 ng·h/mL; in [5], 2960 ng·h/mL; in [9], 5.39 ng·h/mL. Also, the MRT in [6] came to 2.76 h; in series [13] it was 0.51 h; in series [14], 0.69 h. The clearance in series [7] came to 70.6 mL/min/kg. Besides, the bioavailability came to 0.44% in [8] and 121% in [15]. The Cmax in series [10] was 1160 ng/mL; in series [17], 7.86 ng/mL. The Vd is 11.5 L/kg in series [11] and 3.79 L/kg in series [16].
